Laboratory results as given in patent US20220142991A1, “METHODS AND COMPOSITIONS FOR TREATMENT OF L YSOSOMAL STORAGE DISORDER” (CHILDREN'S HOSPITAL MEDICAL CENTER, priority 2019, published 2022).

Columns and labels:
[1] = system: 4L;C* nBMT mice; test: FACS analysis of donor-derived GFP+ migrated cells in brain after nBMT; format: in vivo, mouse; conditions: 55 days of age
Description: Briefly, mice that express enhanced green fluorescent protein (GFP; C57BL/6 GFP/CD45.1) were used as bone marrow donors. Low-density bone marrow (LDBM) cells were harvested by flushing the hind-leg bones with Dulbecco's modified Eagle's medium (DMEM) containing 2% fetal calf serum (FCS) and 50 U penicillin/0.05 mg/mL streptomycin using a 23 G needle. The cells were passed through a 100 μm cell strainer. LDBM cells were isolated after density gradient centrifugation with Histopaque-1083. Viable cells were counted with trypan blue dye and resuspended in PBS containing 30 U/mL heparin. The recipient pups (˜3 days old of 4L;C or 4L;norm) were subjected to myelosuppressive conditioning with the chemotherapeutic agent busulfan by intraperitoneal injection at 20 mg/kg. Twenty-four hours later, the 4L;C and 4L;norm recipient pups then received about 1×10^6 GPF+ donor cells via injection into super-facial temple vein (nBMT). 4L;C nBMT mice were then given an i.p. injection of rapamycin or buffer every other days starting at 21 days of age. […] Multicolor FACS analysis was conducted as described above to analyze contribution of GFP+ migrated cells in microglia and subpopulations of leukocytes. FIG. 11A. The frequency of donor-derived GFP+ cells among different leukocyte populations in brain parenchyma was quantified, including CD45^+ cells, microglia, myeloid, lymphoid, macrophage and T cells. Table 1. In busulfan-conditioned mice, engraftment of GFP+ microglial cells was increased in 4L;C* mice compared to 4L normal mice, regardless of treatment with buffer or rapamycin. Table 1. […] FIG. 11B.

[2] = system: 4L;C* mice; test: FACS analysis of microglia and leukocyte populations in brain; format: in vivo, mouse; conditions: brain hemispheres
From the text: Brain inflammation invariably results in a reshaping of the blood-borne leukocyte populations inhabiting the CNS. To elucidate the changes of resident immune cells (i.e., microglial cells) and infiltrated leukocytes in nGD brain and the effect rapamycin has on activation of immune cells and infiltration, flow cytometry was used to analyze different leukocyte populations in brain parenchyma, including CD45^+ cells, microglia, myeloid, lymphoid, macrophage and T cells. […] The hemispheres of the brain were separated, minced, and digested by incubation with […] collagenase IV for 30 min at 37° C. The resulting cell suspensions were then fractionated by density gradient separation using 25% Percoll® gradients at 520×g for 20 minutes. […] After removing myelin and top suspension layer, pelleted cells collected were then subjected to multicolor (5) fluorescence-activated cell sorting analysis (FACS) by co-staining with multiple antibodies that conjugated with various fluorochromes to identify microglia and subpopulations of leukocytes. FIG. 10A. […] FIG. 10B. […] FIG. 10B. […] FIG. 10B.
The frequency of microglia (CD45^intermediateCD11b^high) was increased in buffer-treated 4L;C* mice (1.9 fold) and decreased in rapamycin-treated 4L;C* mice (1.3-fold), which indicates reduced microgliosis in nGD brain. FIG. 10B. […] FIGS. 10C and 10D.

[3] = system: 4L;C* mice; test: GFAP immunohistochemistry for activated astrocytes in brain; conditions: middle brain, brain stem, Day 55
Description: To visualize reactive astrocytes in nGD mice, immunohistochemistry (IHC) was performed. In brief, brains were harvested from well-perfused rapamycin treated 4L;C* mice, buffer-treated 4L;C* mice, and 4L normal mice at age of Day 55. Sagittal brain cryosections (8 um) were mounted on gelatin-coated slides, air-dried, and subjected to IHC staining using the BenchMark XT IHC/ISH staining module. For GFAP staining, the sections were incubated in buffer solution containing 0.1% trypsin for 5 minutes at room temperature. For morphometric analysis, hematoxylin-eosin co-staining was performed according to standard protocols. Endogenous peroxidase activity was quenched by incubation of the sections for 5 minutes with 3% hydrogen peroxide. Sections were incubated overnight at 4° C. in primary antibodies for GFAP rabbit polyclonal antibody. Staining was detected using biotin-labeled anti-rabbit secondary antibodies and streptavidin conjugated to horseradish peroxidase. Sections were examined with microscope using computer-assisted image analysis software.

[4] = system: 4L;C* mice; test: CD68 immunohistochemistry for activated microglia/macrophage in brain and spinal cord; format: in vivo, mouse
From the text: CD68, a classic marker of activated microglia/macrophage (Korzhevskii et al., (2016) Neurosci Behav Physi 46, 284-290), was used to determine CNS inflammation by immunohistochemistry staining. […] FIG. 6A.

[5] = system: 4L;C* mice; test: Fluoro-Jade C (FJC) staining for degenerating neurons in brain cryosections; conditions: most brain regions, Day 55, vs buffer-treated 4L;C*
Description: To visualize degenerative neurons in nGD mice, brains were harvested from well-perfused rapamycin treated 4L;C* mice, buffer-treated 4L;C* mice, and 4L normal, untreated mice at age of Day 55. Sagittal brain cryosections (10 μm) were mounted on gelatin-coated slides, air-dried, and subjected to FJC staining. The slides were first immersed in a solution containing 1% NaOH in 80% ethanol for 5 minutes. They were rinsed for 2 minutes in 70% ethanol and for 2 minutes in distilled water, then incubated in 0.06% potassium permanganate solution for 10 minutes. Following a water rinse for 2 minutes, slides were transferred to the FJC staining solution and stained for 10 minutes. The proper dilution was accomplished by first making a 0.01% stock solution of FJC dye (Chemicon, Temecula, Calif., USA) in distilled water and then adding 1 ml of the stock solution to 99 ml of 0.1% acetic acid. Slides were washed three times each for 1 minute and then air-dried on a slide warmer at 50° C. for 30 minutes. After clearing in xylene and coverslipping, sections were examined under an epifluorescence microscope.

[6] = system: inflammatory mediators; test: RT-qPCR of inflammatory mediator mRNA in midbrain tissue; format: in vivo, mouse
Description: Vitner et al., (2012) Brain. 135 (Pt 6):1724-35; Dasgupta et al., (2015) Hum Mol Genet. 15; 24(24):7031-48. The highly activated microglia/and astrocyte are the main source of multiple inflammatory mediators in brain. […] The isolated mRNA was subjected to quantitative reverse transcription PCR (RT-qPCR) analysis using oligos directed toward inflammatory mediator genes of interest, including cytokine, chemokine, and inflammation-related receptors. Specifically, RT-qPCR analysis was performed to detect mRNA expression levels of the following genes: tumor necrosis factor (TNF)-alpha, interleukin (IL)-1-beta (IL-1β), IL-6, IL-17A, transforming growth factor beta (TGF-β), chemokine ligand (CCL) 5 (CCL5), CCL2, CCL22 chemokine (C-X-C motif) ligand 2 (CXCL2), intercellular adhesion molecule 1 (ICAM1), tumor necrosis factor receptor 1 (TNFR1), Cluster of Differentiation 86 (CD86), EGF-like module-containing mucin-like hormone receptor-like 1 (F4/80), component 5 (C5), and complement component 5a receptor 1 (C5AR1).

[7] = system: 4L;C* mice; test: Relative bodyweight in 4L;C* nGD mouse model; conditions: 6 mg/kg i.p. every 2 days, bodyweight normalized to age 30 days, untreated/buffer Day 52
Description: To assess the effect of rapamycin on nGD, rapamycin (6 mg/kg) was administered to 4L;C* mice by intraperitoneal (i.p.) injection every 2 days starting from 2-weeks of age (4L;C* rapa). […] The lifespan of the mice was monitored daily from 40 days of age until 90 days of age or until death. The Kaplan-Meier method was used to estimate survival probability and a log-rank test was used to compare the Kaplan-Meier survival curves of the four different experimental groups.
Additionally, the bodyweight the mice was measured daily from 20 days of age until 90 days of age or until death. Relative bodyweight curves were normalized by weight value of each animal at the age of 30 days.

[8] = system: 4L;C* mice; test: Lifespan (Kaplan-Meier survival) in 4L;C* nGD mouse model; format: in vivo; conditions: rapamycin 6 mg/kg i.p. every 2 days from 2 weeks of age, untreated 59 days, buffer 60 days
From the text: The 4L;C* mouse is a transgenic animal model that is viable and mimics neurological deficits analogous to subacute neuronopathic Gaucher disease (nGD). The 4L;C* mice used in this and other examples disclosed herein were generated as described in Sun et al., Hum Mol Genet. 2010 Mar. 15; 19(6): 1088-1097, the disclosure of which is incorporated herein in its entirety. In brief, saposin C deficient (C^−/−) mice were generated by introducing a Cys→Pro substitution in the saposin C region of prosaposin. […] Saposin C is an essential activator for GCase. GCase V394L (4L/4L) mice were generated by germ-line transmission of a missense point mutation in the GCase (GBA) locus encoding for V394L. Next, saposin C^−/− mice were cross-bred with point mutated GCase V394L homozygotes (4L/4L) to generate 4L/wt;C^−/+ mice. 4L;C* mice (4L/4L;C^−/−) were produced by intercrossing 4L/4L;C^+/− with 4L/4L;C^+/−. The strain background of 4L;C* was originally C57BL/6J/129SvEV and backcrossed into pure C57BL/6J strain for more than 12 generations.

CO[C@H]1C[C@@H]2CC[C@@H](C)[C@@](O)(O2)C(=O)C(=O)N2CCCC[C@H]2C(=O)O[C@H]([C@H](C)C[C@@H]2CC[C@@H](O)[C@H](OC)C2)CC(=O)[C@H](C)/C=C(\C)[C@@H](O)[C@@H](OC)C(=O)[C@H](C)C[C@H](C)/C=C/C=C/C=C/1C [rapamycin]
Frequency of GFP+ cells among CD45+ [1]: 2.87 | Frequency of GFP+ cells among Lymphoid [1]: 29.3 | Frequency of GFP+ cells among Macrophage [1]: 19.5 | Frequency of GFP+ cells among Microglia [1]: 1.56 | Frequency of GFP+ cells among Myeloid [1]: 17.4 | Frequency of GFP+ cells among T Cell [1]: 37.6 | frequency of microglia (CD45intermediate CD11bhigh) ([2]; buffer-treated 1.9 fold): 1.3 fold | percentage of total CD45+ cells in brain ([2]; buffer-treated 2.2-): 1.4 fold | decrease of GFAP signal [3]: 36-74% | reduction of CD68+ area ([4]; all brain regions except cerebellar DCN, Day 55): 53-62% | reduction of CD68 signals ([4]; spinal cord): 56% | reduction of degenerating neuronal signals (FJC) [5]: 29-45% | CCL2 mRNA expression ([6]; Day 55, buffer-treated 16.6-fold): 9 fold | CCL5 mRNA expression ([6]; Day 55, compared to normal littermates, buffer-treated 47-fold): 23 fold | starting age for bodyweight to show significant difference from normal controls (4L;norm) [7]: 75 days | median survival [8]: 82 days
